One data set concerns Mus musculus. Put plainly: Toxicity in ip dosed NMRI mouse assessed as clonic and tonic convulsions assessed as cunvulsive dose. It is filed as organism-based. The note with it: in vivo.
The nature of data set [1]: Toxicity in ip dosed NMRI mouse assessed as clonic and tonic convulsions. It is filed as organism-based. The note with it: in vivo.

The term LD50 denotes the dose expected to kill half of the subjects tested. With `C/C=C(/C=O)[C@H]1C[C@H](OC)n2c3c(c4cc(O)ccc42)CCN(C)[C@H]3C1`, the Activity in the data set on Mus musculus came to 75 mg/kg. Also, the LD50 in data set [1] is 75 mg/kg.
Regarding `C/C=C(/C=O)[C@H]1C[C@H](OC)n2c3c(c4ccccc42)CCN(C)[C@H]3C1`, the Activity with Mus musculus came to 45.3 mg/kg.
For `C/C=C1\[C@@H]2C[C@H]3c4c(c5cc(O)ccc5n4[C@@H](C2)O[C@H]1OC)CCN3C`, in the data set with Mus musculus, the Activity stood at 84 mg/kg. Besides, the LD50 in data set [1] was found to be 84 mg/kg.
For `C/C=C1\[C@@H]2C[C@H]3c4c(c5cc(O)ccc5n4[C@@H](C2)O[C@@H]1OC)CCN3C`, the Activity in the data set on Mus musculus came out at 80 mg/kg. Moreover, in data set [1], the LD50 came out at 90 mg/kg.
On to `C/C=C(/C=O)[C@@H]1C[C@H]2c3c(c4ccccc4n3[C@@H](O)C1)CCN2C` [AKAGERINE], for which the Activity with Mus musculus was 50 mg/kg.
